Source: US6815546B2, “Analogues of camptothecin, their use as medicaments and the pharmaceutical compositions containing them” (Societe de Recherches et d'Applications Scientifiques …, priority 1995, dated 2004)

Key:
Type in all cases: cell-based
[1] = system: L1210 (mouse lymphocytic leukemia); experiment: Test on cell proliferation (MTT test), L1210; conditions: 48 hours
Experimental: (§1) a. Eight tumoral cell lines are used in this study: L1210 (mouse lymphocytic leukemia), HCT15 and LOVO (cell lines of human colon adenocarcinoma), A549 (human lung carcinoma), A172, U373 et U87 (human glioblastoma). All these lines are obtained from the American Type Culture Collection (ATCC), Rockville, Md. The L1210 cell cultures in suspension are cultured in Dulbecco's modified Eagle's medium (DMEM) (BioWhitaker, Verviers, Belgium) together with 10% of foetal calf serum inactivated by heating, 2 mM of glutamine, 50 μg/ml of penicillin and 50 μg/ml of streptomycin. The HT29 cells are cultured in mono-layer cultures in a McCoy 5a medium (Gibco, Paisley, United Kingdom) together with 10% of foetal calf serum inactivated by heat plus 2 mM of glutamine and 50 μg/ml of gentamycin. The other cells are cultured in an Earle's modified essential medium (EMEM; Gibco, Paisley, United Kingdom) together with 5% foetal calf serum inactivated by heat, 2 mM of glutamine, 50 U/ml of penicillin and 50 μg/ml of streptomycin. All the cell lines are cultured at 37° C. in a humidified atmosphere containing 95% air and 5% CO2.
(§2) Inhibition of the tumor cell line proliferation is determined using an MTT test. 1500 L1210 cells in a culture medium (according to the needs of the cell medium) are seeded in a well of a micro-well plate (tissue culture level: 96 wells, flat bottom) 24 hours before treatment with the compounds to be tested. For these dose-response studies, the cells are incubated with each of the compounds to be tested or their corresponding solvent (controls) for 48 hours over a final concentration range of 1.10^−10 to 1.10^−4 M. All the compounds are dissolved just before use in dimethylsulphoxide (DMSO) at a concentration of 50 mM. Other dilutions of the medicaments are carried out in the culture medium. The final concentration of DMSO never exceeds 0.2% (v/v). As controls, the solutions of medicaments are replaced with the solvent which is diluted successively in the same way as the compounds to be tested.
(§3) After the incubation period, the labeling reagent MTT (3-[4,5-dimethylthiazol-2-yl]-2,5-diphenyltetrazolium bromide; Thiazol blue, Sigma M 565, Sigma, St Louis, Mo.) is added at a final concentration of 0.3 mg/ml to each well. The cells are incubated for 4 hours at 37° C. in a humidified atmosphere. This stage allows the mitochondrial dehydrogenase of the living cells to convert the yellow tetrazolium salt MTT into crimson formazan crystals. The supernatant part is eliminated and the formazan crystals formed are solubilized with DMSO. The resultant coloured solution is quantified by absorbance at 570 nm by using a multi-cuvette scanning spectrophotometer. The data concerning the proliferation is expressed as a percentage of living cells in the treated wells, divided by the living cells in the controls. Each point represents the average of three independent experiments, each experiment represents six determinations.
(§4) The results are expressed as percentages of the calculated proliferation by the optical density (OD) of the cells treated with a medicament divided by the OD of the control cells (cells treated with DMSO). As represented in Table II, the compounds to be tested have inhibited the proliferation of cells in a dose-dependent manner.

[2] = system: HCT15 (cell lines of human colon adenocarcinoma); experiment: Test on cell proliferation (MTT test), HCT15; conditions: 72 hours
Experimental: as §1, §2, §3
(§5) For the other cell lines (HCT15, LOVO, A549, A172, U373, U87), 1000 to 2000 cells are seeded in the well of a micro-well plate 24 hours before medicinal treatment. […]
as §4

[3] = system: LOVO (cell lines of human colon adenocarcinoma); experiment: Test on cell proliferation (MTT test), LOVO; conditions: 72 hours
Experimental: as §1, §2, §3, §5, §4

[4] = system: A549 (human lung carcinoma); experiment: Test on cell proliferation (MTT test), A549; conditions: 72 hours
Experimental: as §1, §2, §3, §5, §4

[5] = system: A172 (human glioblastoma); experiment: Test on cell proliferation (MTT test), A172; conditions: 72 hours
Experimental: as §1, §2, §3, §5, §4

[6] = system: U373 (human glioblastoma); experiment: Test on cell proliferation (MTT test), U373; conditions: 72 hours
Experimental: as §1, §2, §3, §5, §4

U87 (human glioblastoma) = experiment: Test on cell proliferation (MTT test), U87; conditions: 72 hours
Experimental: as §1, §2, §3, §5, §4

CCC1(O)CC(=O)OCc2c1cc1n(c2=O)Cc2cc3ccccc3nc2-1 (stereo not shown) [Example 3, 5-ethyl-5-hydroxy-1,4,5,13-tetrahydro-3H,15H-oxepino [3′,4′:6,7]indolizino[1,2-b]quinoline-3,15-dione]
PERCENTAGE OF CELL PROLIFERATION ([1]; 0.1 nM): 87.22% | PERCENTAGE OF CELL PROLIFERATION ([1]; 1 nM): 68.92% | PERCENTAGE OF CELL PROLIFERATION ([1]; 10 nM): 42.64% | PERCENTAGE OF CELL PROLIFERATION ([1]; 100 nM): 26.85% | PERCENTAGE OF CELL PROLIFERATION ([1]; 1 000 nM): 10.83% | PERCENTAGE OF CELL PROLIFERATION ([1]; 10 000 nM): 2.11% | PERCENTAGE OF CELL PROLIFERATION ([1]; 100 000 nM): 2.20% | PERCENTAGE OF CELL PROLIFERATION ([2]; 0.1 nM): 86.00% | PERCENTAGE OF CELL PROLIFERATION ([2]; 1 nM): 84.00% | PERCENTAGE OF CELL PROLIFERATION ([2]; 10 nM): 58.00% | PERCENTAGE OF CELL PROLIFERATION ([2]; 100 nM): 44.00% | PERCENTAGE OF CELL PROLIFERATION ([2]; 1 000 nM): 18.00% | PERCENTAGE OF CELL PROLIFERATION ([2]; 10 000 nM): 9.00% | PERCENTAGE OF CELL PROLIFERATION ([2]; 100 000 nM): 13.00% | PERCENTAGE OF CELL PROLIFERATION ([3]; 0.1 nM): 108.00% | PERCENTAGE OF CELL PROLIFERATION ([3]; 1 nM): 86.00% | PERCENTAGE OF CELL PROLIFERATION ([3]; 10 nM): 54.00% | PERCENTAGE OF CELL PROLIFERATION ([3]; 100 nM): 31.00% | PERCENTAGE OF CELL PROLIFERATION ([3]; 1 000 nM): 23.00% | PERCENTAGE OF CELL PROLIFERATION ([3]; 10 000 nM): 10.00% | PERCENTAGE OF CELL PROLIFERATION ([3]; 100 000 nM): 12.00% | PERCENTAGE OF CELL PROLIFERATION ([4]; 0.1 nM): 132.00% | PERCENTAGE OF CELL PROLIFERATION ([4]; 1 nM): 111.00% | PERCENTAGE OF CELL PROLIFERATION ([4]; 10 nM): 75.00% | PERCENTAGE OF CELL PROLIFERATION ([4]; 100 nM): 39.00% | PERCENTAGE OF CELL PROLIFERATION ([4]; 1 000 nM): 35.00% | PERCENTAGE OF CELL PROLIFERATION ([4]; 10 000 nM): 10.00% | PERCENTAGE OF CELL PROLIFERATION ([4]; 100 000 nM): 11.00% | PERCENTAGE OF CELL PROLIFERATION ([5]; 0.1 nM): 89.00% | PERCENTAGE OF CELL PROLIFERATION ([5]; 1 nM): 101.00% | PERCENTAGE OF CELL PROLIFERATION ([5]; 10 nM): 68.00% | PERCENTAGE OF CELL PROLIFERATION ([5]; 100 nM): 37.00% | PERCENTAGE OF CELL PROLIFERATION ([5]; 1 000 nM): 27.00% | PERCENTAGE OF CELL PROLIFERATION ([5]; 10 000 nM): 10.00% | PERCENTAGE OF CELL PROLIFERATION ([5]; 100 000 nM): 7.00% | PERCENTAGE OF CELL PROLIFERATION ([6]; 0.1 nM): 99.00% | PERCENTAGE OF CELL PROLIFERATION ([6]; 1 nM): 98.00% | PERCENTAGE OF CELL PROLIFERATION ([6]; 10 nM): 40.00% | PERCENTAGE OF CELL PROLIFERATION ([6]; 100 nM): 24.00% | PERCENTAGE OF CELL PROLIFERATION ([6]; 1 000 nM): 17.00% | PERCENTAGE OF CELL PROLIFERATION ([6]; 10 000 nM): 13.00% | PERCENTAGE OF CELL PROLIFERATION ([6]; 100 000 nM): 9.00% | PERCENTAGE OF CELL PROLIFERATION (U87 (human glioblastoma); 0.1 nM): 108.00% | PERCENTAGE OF CELL PROLIFERATION (U87 (human glioblastoma); 1 nM): 85.00% | PERCENTAGE OF CELL PROLIFERATION (U87 (human glioblastoma); 10 nM): 42.00% | PERCENTAGE OF CELL PROLIFERATION (U87 (human glioblastoma); 100 nM): 23.00% | PERCENTAGE OF CELL PROLIFERATION (U87 (human glioblastoma); 1 000 nM): 15.00% | PERCENTAGE OF CELL PROLIFERATION (U87 (human glioblastoma); 10 000 nM): 5.00% | PERCENTAGE OF CELL PROLIFERATION (U87 (human glioblastoma); 100 000 nM): 6.00%
